Converted amounts (≈) assume the structure as drawn.
Experiments:
A. baumannii CDC-0036 = test: microbe, parasite or virus in culture; assay type: cell-based; conditions: Acinetobacter baumannii, CDC0036, read-out: MIC, A. baumannii CDC-0036
A. baumannii ATCC 17978 = test: microbe, parasite or virus in culture; assay type: cell-based; conditions: Acinetobacter baumannii, ATCC17978, read-out: MIC, A. baumannii ATCC 17978
N. gonorrhoeae MS11 = test: Liquid broth MIC in Fastidious broth; conditions: Neisseria gonorrhoeae, MS11, read-out: Minimum Inhibitory Concentration (MIC), N. gonorrhoeae MS11
N. gonorrhoeae WHO X = test: Liquid broth MIC in Fastidious broth; conditions: Neisseria gonorrhoeae, read-out: Minimum Inhibitory Concentration (MIC), N. gonorrhoeae WHO X
N. gonorrhoeae CDC-0197 = test: Liquid broth MIC in Fastidious broth; conditions: Neisseria gonorrhoeae, CDC0197, read-out: Minimum Inhibitory Concentration (MIC), N. gonorrhoeae CDC-0197
P. aeruginosa CDC-0110 = test: microbe, parasite or virus in culture; assay type: cell-based; conditions: Pseudomonas aeruginosa, CDC0110, read-out: Minimum inhibitory concentration, P. aeruginosa CDC-0110
A. baumannii CDC-0083 = test: microbe, parasite or virus in culture; assay type: cell-based; conditions: Acinetobacter baumannii, CDC0083, read-out: MIC, A. baumannii CDC-0083
P. aeruginosa ATCC 35151 = test: microbe, parasite or virus in culture; assay type: cell-based; conditions: Pseudomonas aeruginosa, ATCC35151, read-out: Minimum inhibitory concentration, P. aeruginosa ATCC 35151
A. baumannii CDC-0033 = test: microbe, parasite or virus in culture; assay type: cell-based; conditions: Acinetobacter baumannii, CDC0033, read-out: MIC, A. baumannii CDC-0033
P. aeruginosa CDC-0095 = test: microbe, parasite or virus in culture; assay type: cell-based; conditions: Pseudomonas aeruginosa, CDC0095, read-out: Minimum inhibitory concentration, P. aeruginosa CDC-0095
[1] = test system: N. gonorrhoeae ATCC 49226; test: Liquid broth MIC in Fastidious broth; conditions: Neisseria gonorrhoeae, ATCC49226, read-out: Minimum Inhibitory Concentration (MIC), N. gonorrhoeae ATCC 49226
A. baumannii ATCC 19606 = test: microbe, parasite or virus in culture; assay type: cell-based; conditions: Acinetobacter baumannii, ATCC19606, read-out: MIC, A. baumannii ATCC 19606
[2] = molecular target: T1, PBP3 from Pseudomonas aeruginosa (PAO1) (Pseudomonas aeruginosa, UniProt G3XD46); test: Bocillin-FL fluorescence polarization competition binding, P. aeruginosa PBP3; conditions: Binding affinity to P. aeruginosa PBP3; fluorescence polarization competition binding assay using Bocillin-FL; read-out: P. aeruginosa PBP3 Potency
T1 construct: made in house
Summary of the method: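 Purified PBP was preincubated with inhibitor (E. coli PBP3 1.5 μM, 30 min; P. aeruginosa PBP3 0.75 μM, A. baumannii PBP3 0.2 μM and PBP1a 1 μM, 15 min), then Bocillin-FL (0.1 μM; 0.05 μM for PBP1a) added and FP read up to 60 min. EC50 = 50% loss of bound probe.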

N. gonorrhoeae WHO M = test: Liquid broth MIC in Fastidious broth; conditions: Neisseria gonorrhoeae, read-out: Minimum Inhibitory Concentration (MIC), N. gonorrhoeae WHO M
A. baumannii 1258916 = test: microbe, parasite or virus in culture; assay type: cell-based, Acinetobacter baumannii; conditions: Acinetobacter baumannii, 1258916, read-out: MIC, A. baumannii 1258916

T1 sequence (G3XD46 whole entry): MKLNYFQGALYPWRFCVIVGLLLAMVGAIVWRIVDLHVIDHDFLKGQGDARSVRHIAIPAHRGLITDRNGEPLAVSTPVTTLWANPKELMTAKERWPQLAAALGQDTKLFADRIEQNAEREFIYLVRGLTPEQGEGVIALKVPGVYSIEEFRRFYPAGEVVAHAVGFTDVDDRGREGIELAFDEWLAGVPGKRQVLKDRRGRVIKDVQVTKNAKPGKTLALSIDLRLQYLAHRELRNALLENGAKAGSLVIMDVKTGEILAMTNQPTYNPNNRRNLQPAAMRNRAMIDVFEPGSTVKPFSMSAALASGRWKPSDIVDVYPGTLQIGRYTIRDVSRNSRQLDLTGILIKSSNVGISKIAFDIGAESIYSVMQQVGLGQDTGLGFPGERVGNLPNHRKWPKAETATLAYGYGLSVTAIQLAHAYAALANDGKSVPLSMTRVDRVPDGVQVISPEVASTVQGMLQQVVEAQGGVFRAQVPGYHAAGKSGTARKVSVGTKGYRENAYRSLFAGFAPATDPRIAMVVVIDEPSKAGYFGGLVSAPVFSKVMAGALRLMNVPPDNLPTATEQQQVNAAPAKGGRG

Compound	MIC (A. baumannii CDC-0036)	MIC (A. baumannii ATCC 17978)	MIC (N. gonorrhoeae MS11)	MIC (N. gonorrhoeae WHO X)	MIC (N. gonorrhoeae CDC-0197)	MIC (P. aeruginosa CDC-0110)	MIC (A. baumannii CDC-0083)	MIC (P. aeruginosa ATCC 35151)	MIC (A. baumannii CDC-0033)	MIC (P. aeruginosa CDC-0095)	MIC [1]	MIC (A. baumannii ATCC 19606)	IC50 [2]	MIC (N. gonorrhoeae WHO M)	MIC (A. baumannii 1258916)
O=C(NCCCN1CCN(C(=O)NC(C(=O)N[C@H]2Cc3ccc(F)c(C(=O)O)c3OB2O)c2cc(F)c(O)c(O)c2Cl)C(=O)C1=O)Nc1ccc(O)cc1 (stereo partly drawn) [Example 227, (3R)-3-(2-(2-chloro-5-fluoro-3,4-dihydroxyphenyl)-2-(4-(3-(3-(4-hydroxyphenyl)ureido)propyl)-2,3-dioxopiperazine-1-carboxamido)acetamido)-7-fluoro-2-hydroxy-3,4-dihydro-2H-benzo[e][1,2]oxaborinine-8-carboxylic acid]	2 to 4 µg/mL (≈ 2.58 to 5.16 µM)	< 1 µg/mL	16 to 32 µg/mL (≈ 20.6 to 41.3 µM)	> 64 µg/mL	> 64 µg/mL	< 1 µg/mL	< 1 µg/mL	< 1 µg/mL	2 to 4 µg/mL (≈ 2.58 to 5.16 µM)	< 1 µg/mL	16 to 32 µg/mL (≈ 20.6 to 41.3 µM)	< 1 µg/mL	< 10 µM	4 to 8 µg/mL (≈ 5.16 to 10.3 µM)	< 1 µg/mL
O=C(NCCCN1CCN(C(=O)NC(C(=O)N[C@H]2Cc3ccc(F)c(C(=O)O)c3OB2O)c2cc(F)c(O)c(O)c2Cl)C(=O)C1=O)Nc1ccncc1 (stereo partly drawn) [Example 228, (3R)-3-(2-(2-chloro-5-fluoro-3,4-dihydroxyphenyl)-2-(2,3-dioxo-4-(3-(3-(pyridin-4-yl)ureido)propyl)piperazine-1-carboxamido)acetamido)-7-fluoro-2-hydroxy-3,4-dihydro-2H-benzo[e][1,2]oxaborinine-8-carboxylic acid]	2 to 4 µg/mL (≈ 2.63 to 5.26 µM)	< 1 µg/mL	> 64 µg/mL	> 64 µg/mL	> 64 µg/mL	< 1 µg/mL	< 1 µg/mL	< 1 µg/mL	2 to 4 µg/mL (≈ 2.63 to 5.26 µM)	2 to 4 µg/mL (≈ 2.63 to 5.26 µM)	> 64 µg/mL	< 1 µg/mL	< 10 µM	16 to 32 µg/mL (≈ 21.1 to 42.1 µM)	< 1 µg/mL
O=C(O)c1c(F)ccc2c1OB(O)[C@@H](NC(=O)[C@H](NC(=O)N1CCN(CCNC(=O)[C@@H]3CCCN3)C(=O)C1=O)c1cc(F)c(O)c(O)c1Cl)C2 [Example 229, (R)-3-((R)-2-(2-chloro-5-fluoro-3,4-dihydroxyphenyl)-2-(2,3-dioxo-4-(2-((S)-pyrrolidine-2-carboxamido)ethyl)piperazine-1-carboxamido)acetamido)-7-fluoro-2-hydroxy-3,4-dihydro-2H-benzo[e][1,2]oxaborinine-8-carboxylic acid]	2 to 4 µg/mL (≈ 2.77 to 5.53 µM)	< 1 µg/mL	16 to 32 µg/mL (≈ 22.1 to 44.3 µM)	> 64 µg/mL	16 to 32 µg/mL (≈ 22.1 to 44.3 µM)	2 to 4 µg/mL (≈ 2.77 to 5.53 µM)	< 1 µg/mL	< 1 µg/mL	8 to 16 µg/mL (≈ 11.1 to 22.1 µM)	< 1 µg/mL	16 to 32 µg/mL (≈ 22.1 to 44.3 µM)	< 1 µg/mL	< 10 µM	4 to 8 µg/mL (≈ 5.53 to 11.1 µM)	2 to 4 µg/mL (≈ 2.77 to 5.53 µM)
O=C(CN1CCN(C(=O)NC(C(=O)N[C@H]2Cc3ccc(F)c(C(=O)O)c3OB2O)c2cc(F)c(O)c(O)c2Cl)C(=O)C1=O)Nc1ccc(O)cc1 (stereo partly drawn) [Example 230, (3R)-3-(2-(2-chloro-5-fluoro-3,4-dihydroxyphenyl)-2-(4-(2-((4-hydroxyphenyl)amino)-2-oxoethyl)-2,3-dioxopiperazine-1-carboxamido)acetamido)-7-fluoro-2-hydroxy-3,4-dihydro-2H-benzo[e][1,2]oxaborinine-8-carboxylic acid]	2 to 4 µg/mL (≈ 2.73 to 5.47 µM)	< 1 µg/mL	4 to 8 µg/mL (≈ 5.47 to 10.9 µM)	> 64 µg/mL	16 to 32 µg/mL (≈ 21.9 to 43.7 µM)	< 1 µg/mL	< 1 µg/mL	< 1 µg/mL	2 to 4 µg/mL (≈ 2.73 to 5.47 µM)	< 1 µg/mL	4 to 8 µg/mL (≈ 5.47 to 10.9 µM)	< 1 µg/mL	< 10 µM	4 to 8 µg/mL (≈ 5.47 to 10.9 µM)	2 to 4 µg/mL (≈ 2.73 to 5.47 µM)
O=C(CN1CCN(C(=O)NC(C(=O)N[C@H]2Cc3ccc(F)c(C(=O)O)c3OB2O)c2cc(F)c(O)c(O)c2Cl)C(=O)C1=O)Nc1cccc(O)c1 (stereo partly drawn) [Example 231, (3R)-3-(2-(2-chloro-5-fluoro-3,4-dihydroxyphenyl)-2-(4-(2-((3-hydroxyphenyl)amino)-2-oxoethyl)-2,3-dioxopiperazine-1-carboxamido)acetamido)-7-fluoro-2-hydroxy-3,4-dihydro-2H-benzo[e][1,2]oxaborinine-8-carboxylic acid]	2 to 4 µg/mL (≈ 2.73 to 5.47 µM)	< 1 µg/mL	16 to 32 µg/mL (≈ 21.9 to 43.7 µM)	> 64 µg/mL	16 to 32 µg/mL (≈ 21.9 to 43.7 µM)	< 1 µg/mL	> 128 µg/mL	< 1 µg/mL	8 to 16 µg/mL (≈ 10.9 to 21.9 µM)	2 to 4 µg/mL (≈ 2.73 to 5.47 µM)	16 to 32 µg/mL (≈ 21.9 to 43.7 µM)	< 1 µg/mL	< 10 µM	4 to 8 µg/mL (≈ 5.47 to 10.9 µM)	2 to 4 µg/mL (≈ 2.73 to 5.47 µM)
O=C(CN1CCN(C(=O)NC(C(=O)N[C@H]2Cc3ccc(F)c(C(=O)O)c3OB2O)c2cc(F)c(O)c(O)c2Cl)C(=O)C1=O)Nc1ccccc1 (stereo partly drawn) [Example 232, (3R)-3-(2-(2-chloro-5-fluoro-3,4-dihydroxyphenyl)-2-(2,3-dioxo-4-(2-oxo-2-(phenylamino)ethyl)piperazine-1-carboxamido)acetamido)-7-fluoro-2-hydroxy-3,4-dihydro-2H-benzo[e][1,2]oxaborinine-8-carboxylic acid]	8 to 16 µg/mL (≈ 11.2 to 22.4 µM)	2 to 4 µg/mL (≈ 2.79 to 5.59 µM)	16 to 32 µg/mL (≈ 22.4 to 44.7 µM)	> 64 µg/mL	> 64 µg/mL	2 to 4 µg/mL (≈ 2.79 to 5.59 µM)	> 128 µg/mL	< 1 µg/mL	32 to 64 µg/mL (≈ 44.7 to 89.4 µM)	2 to 4 µg/mL (≈ 2.79 to 5.59 µM)	16 to 32 µg/mL (≈ 22.4 to 44.7 µM)	2 to 4 µg/mL (≈ 2.79 to 5.59 µM)	< 10 µM	4 to 8 µg/mL (≈ 5.59 to 11.2 µM)	2 to 4 µg/mL (≈ 2.79 to 5.59 µM)
O=C(CN1CCN(C(=O)NC(C(=O)N[C@H]2Cc3ccc(F)c(C(=O)O)c3OB2O)c2cc(F)c(O)c(O)c2Cl)C(=O)C1=O)Nc1ccncc1 (stereo partly drawn) [Example 233, (3R)-3-(2-(2-chloro-5-fluoro-3,4-dihydroxyphenyl)-2-(2,3-dioxo-4-(2-oxo-2-(pyridin-4-ylamino)ethyl)piperazine-1-carboxamido)acetamido)-7-fluoro-2-hydroxy-3,4-dihydro-2H-benzo[e][1,2]oxaborinine-8-carboxylic acid]	2 to 4 µg/mL (≈ 2.79 to 5.58 µM)	< 1 µg/mL	16 to 32 µg/mL (≈ 22.3 to 44.6 µM)	> 64 µg/mL	16 to 32 µg/mL (≈ 22.3 to 44.6 µM)	< 1 µg/mL	< 1 µg/mL	< 1 µg/mL	8 to 16 µg/mL (≈ 11.2 to 22.3 µM)	2 to 4 µg/mL (≈ 2.79 to 5.58 µM)	4 to 8 µg/mL (≈ 5.58 to 11.2 µM)	< 1 µg/mL	< 10 µM	4 to 8 µg/mL (≈ 5.58 to 11.2 µM)	< 1 µg/mL
O=C(CN1CCN(C(=O)NC(C(=O)N[C@H]2Cc3ccc(F)c(C(=O)O)c3OB2O)c2cc(F)c(O)c(O)c2Cl)C(=O)C1=O)Nc1cccnc1 (stereo partly drawn) [Example 234, (3R)-3-(2-(2-chloro-5-fluoro-3,4-dihydroxyphenyl)-2-(2,3-dioxo-4-(2-oxo-2-(pyridin-3-ylamino)ethyl)piperazine-1-carboxamido)acetamido)-7-fluoro-2-hydroxy-3,4-dihydro-2H-benzo[e][1,2]oxaborinine-8-carboxylic acid]	2 to 4 µg/mL (≈ 2.79 to 5.58 µM)	< 1 µg/mL	16 to 32 µg/mL (≈ 22.3 to 44.6 µM)	> 64 µg/mL	16 to 32 µg/mL (≈ 22.3 to 44.6 µM)	< 1 µg/mL	< 1 µg/mL	< 1 µg/mL	8 to 16 µg/mL (≈ 11.2 to 22.3 µM)	32 to 64 µg/mL (≈ 44.6 to 89.3 µM)	4 to 8 µg/mL (≈ 5.58 to 11.2 µM)	< 1 µg/mL	< 10 µM	4 to 8 µg/mL (≈ 5.58 to 11.2 µM)	< 1 µg/mL
O=C(CN1CCN(C(=O)NC(C(=O)N[C@H]2Cc3ccc(F)c(C(=O)O)c3OB2O)c2cc(F)c(O)c(O)c2Cl)C(=O)C1=O)Nc1nccs1 (stereo partly drawn) [Example 235, (3R)-3-(2-(2-chloro-5-fluoro-3,4-dihydroxyphenyl)-2-(2,3-dioxo-4-(2-oxo-2-(thiazol-2-ylamino)ethyl)piperazine-1-carboxamido)acetamido)-7-fluoro-2-hydroxy-3,4-dihydro-2H-benzo[e][1,2]oxaborinine-8-carboxylic acid]	2 to 4 µg/mL (≈ 2.77 to 5.53 µM)	< 1 µg/mL	16 to 32 µg/mL (≈ 22.1 to 44.3 µM)	> 64 µg/mL	16 to 32 µg/mL (≈ 22.1 to 44.3 µM)	< 1 µg/mL	< 1 µg/mL	< 1 µg/mL	8 to 16 µg/mL (≈ 11.1 to 22.1 µM)	2 to 4 µg/mL (≈ 2.77 to 5.53 µM)	16 to 32 µg/mL (≈ 22.1 to 44.3 µM)	< 1 µg/mL	< 10 µM	4 to 8 µg/mL (≈ 5.53 to 11.1 µM)	2 to 4 µg/mL (≈ 2.77 to 5.53 µM)

— US20240270762A1, “PENICILLIN-BINDING PROTEIN INHIBITORS” (priority 2021, published 2024)
